# From the supplement of paper PMC10307832
# Experiments:
# Assay in all cases: relative viability (nuclei count vs DMSO), 5 days (fraction); higher = more cells survive
# LOU-NH91 = test system: LOU-NH91
# Method in brief: (§1)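 Lung cancer cell lines were seeded in 1536-well plates and dosed by pin tool the next day, with either a single drug or a fixed anchor-drug dose combined with five library-drug doses (not always all listed) spaced in √10 steps. Five days later, one step fixed the cells and stained their nuclei (final 0.05% Triton X-100, 1% formaldehyde, 1 ug/ml Hoechst), and nuclei were counted on 4× images. Relative viability is the nuclei count in treated wells divided by the count in vehicle wells, and each value is the median of duplicate plates.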
# NCI-H1650 = test system: NCI-H1650
# Method in brief: as §1
# COR-L 105 = test system: COR-L 105
# Method in brief: as §1
# NCI-H441 = test system: NCI-H441
# Method in brief: as §1
# PC-14 = test system: PC-14
# Method in brief: as §1
# HARA = test system: HARA
# Method in brief: as §1
# NCI-H3122 = test system: NCI-H3122
# Method in brief: as §1
# BEN = test system: BEN
# Method in brief: as §1
# CAL-12T = test system: CAL-12T
# Method in brief: as §1
# EKVX = test system: EKVX
# Method in brief: as §1
# NCI-H2170 = test system: NCI-H2170
# Method in brief: as §1
smiles,measurement,setting,value
COc1cc2nccc(Oc3ccc(NC(=O)Nc4cc(C)on4)c(Cl)c3)c2cc1OC [Tivozanib] + Cc1nc(Nc2ncc(C(=O)Nc3c(C)cccc3Cl)s2)cc(N2CCN(CCO)CC2)n1 [Dasatinib] (partner 0.075 µM),relative viability,LOU-NH91; first compound 0.005 µM,0.514
same,relative viability,LOU-NH91; first compound 0.01581 µM,0.569
same,relative viability,LOU-NH91; first compound 0.05 µM,0.595
same,relative viability,LOU-NH91; first compound 0.1581 µM,0.518
same,relative viability,LOU-NH91; first compound 0.5 µM,0.525
same,relative viability,NCI-H1650; first compound 0.005 µM,0.309
same,relative viability,NCI-H1650; first compound 0.01581 µM,0.361
same,relative viability,NCI-H1650; first compound 0.05 µM,0.346
same,relative viability,NCI-H1650; first compound 0.1581 µM,0.27
same,relative viability,NCI-H1650; first compound 0.5 µM,0.267
same,relative viability,COR-L 105; first compound 0.005 µM,0.34
same,relative viability,COR-L 105; first compound 0.01581 µM,0.361
same,relative viability,COR-L 105; first compound 0.05 µM,0.467
same,relative viability,COR-L 105; first compound 0.1581 µM,0.269
same,relative viability,COR-L 105; first compound 0.5 µM,0.354
same,relative viability,NCI-H441; first compound 0.005 µM,0.642
same,relative viability,NCI-H441; first compound 0.01581 µM,0.584
same,relative viability,NCI-H441; first compound 0.05 µM,0.498
same,relative viability,NCI-H441; first compound 0.1581 µM,0.625
same,relative viability,NCI-H441; first compound 0.5 µM,0.394
same,relative viability,PC-14; first compound 0.005 µM,0.224
same,relative viability,PC-14; first compound 0.01581 µM,0.25
same,relative viability,PC-14; first compound 0.05 µM,0.255
same,relative viability,PC-14; first compound 0.1581 µM,0.316
same,relative viability,PC-14; first compound 0.5 µM,0.239
same,relative viability,HARA; first compound 0.005 µM,0.242
same,relative viability,HARA; first compound 0.01581 µM,0.269
same,relative viability,HARA; first compound 0.05 µM,0.286
same,relative viability,HARA; first compound 0.1581 µM,0.19
same,relative viability,HARA; first compound 0.5 µM,0.251
same,relative viability,NCI-H3122; first compound 0.005 µM,0.986
same,relative viability,NCI-H3122; first compound 0.01581 µM,0.821
same,relative viability,NCI-H3122; first compound 0.05 µM,0.754
same,relative viability,NCI-H3122; first compound 0.1581 µM,0.604
same,relative viability,NCI-H3122; first compound 0.5 µM,0.887
same,relative viability,BEN; first compound 0.005 µM,0.254
same,relative viability,BEN; first compound 0.01581 µM,0.342
same,relative viability,BEN; first compound 0.05 µM,0.369
same,relative viability,BEN; first compound 0.1581 µM,0.225
same,relative viability,BEN; first compound 0.5 µM,0.25
same,relative viability,CAL-12T; first compound 0.005 µM,0.402
same,relative viability,CAL-12T; first compound 0.01581 µM,0.527
same,relative viability,CAL-12T; first compound 0.05 µM,0.481
same,relative viability,CAL-12T; first compound 0.1581 µM,0.343
same,relative viability,CAL-12T; first compound 0.5 µM,0.285
same,relative viability,EKVX; first compound 0.005 µM,0.571
same,relative viability,EKVX; first compound 0.01581 µM,0.605
same,relative viability,EKVX; first compound 0.05 µM,0.483
same,relative viability,EKVX; first compound 0.5 µM,0.474
same,relative viability,NCI-H2170; first compound 0.005 µM,0.599
same,relative viability,NCI-H2170; first compound 0.01581 µM,0.494
same,relative viability,NCI-H2170; first compound 0.05 µM,0.616
same,relative viability,NCI-H2170; first compound 0.1581 µM,0.348
same,relative viability,NCI-H2170; first compound 0.5 µM,0.569
